Read-outs that look alike come from different tables or passages of the source.

Data set [1] relates to surviving regenerating intestinal crypts. Put plainly: Small intestinal crypt survival in murine total-body irradiation (TBI) model of intestinal mucositis. The data set is classed as in vivo, Mouse (Mus musculus) C57BL6. Conditions: 12 Gy. The text has this: The aim of the study whose results are provided in FIG. 2-6 was to determine the effect of TK-112690 on small intestinal crypt survival, in a murine total-body irradiation (TBI) model of intestinal mucositis.
• Animal Species: Mouse (Mus musculus) • Strain/substrain: C57BL6 (negative for Klebsiella oxytoca) • Source: Jackson Laboratories, MP-14, Bar Harbour, Me 04609, USA • Total animals: 40 males plus 5 spares • Body weight range: 18 to 25 g at start of treatment • Animal ages: 10 to 12 weeks at start of treatment • Housing: Animals were individually housed in rodent polycarbonated bins with bedding (irradiated Teklad sani chips) equipped with water bottles. Following group assignment, all cages were clearly labeled with a color-coded cage card indicating at least the study number and animal number. • Animal Identification: Each animal was individually identified using a permanent marker. • Group Animal Numbers: Each animal was given a four-number identification code. The first number corresponds to the respective dose group (1-4). The second number refers to whether the animal is the original animal, for instance the number 0, or a replacement, for instance 1, The third and fourth numbers identify the animal's rank within each group. • Room Environment: The animal room environment was set to maintain a temperature of 21±3° C., a relative humidity of 50±20%; and a light dark cycle of 12 hours light/12 hours dark, except during Study Plan-designated procedures. • Diet/Water: A standard certified commercial chow (Envigo Teklad Certified Irradiated Global Rodent Diet #2918C) was provided to the animals ad libitum except during designated procedures. Treats or fruits/vegetables were provided as part of the animal enrichment program. Concentrations of the contaminants (e.g., heavy metals, aflatoxin, organophosphate and chlorinated hydrocarbons) were routinely measured by the manufacturers. Acidified (pH between 2.75 and 3.25) municipal tap water (which had been exposed to ultraviolet light and purified by reverse osmosis) was provided to all animals ad libitum, except during designated procedures, via water bottles. Water bottles were changed at least every 3 days prior to irradiation and every 2 days after irradiation. Acidified water was changed every day after irradiation. During transportation and irradiation, animals were provided with food and water gel packs. Animals received water gel packs at least 2 days before transportation to acclimate to this type of hydration supplement and this procedure continued until necropsy. In addition, wetted food was provided to the animals on the bottom of the bins from Day 1 to the day of necropsy. • Acclimation: An acclimation period of at least 14 days was allowed between receipt of the animals and the start of dosing to accustom the animals to the laboratory environment. • Animal Assignment: During the acclimation period, animals were separately assigned to dose groups by a randomizing stratification system based on body weights. For logistical reasons, the animals were assigned to replicate subgroups, which may initiate dosing on different days.
The test item and reference item/vehicle are administered by intraperitoneal injection (ip) or oral gavage (po) 1.5 to 2 hour prior and 4 hours post irradiation and then twice daily (12 hours apart) for 4 consecutive days (Days 2 to 5), as shown below: […]

The format of data set [2] is in vivo. Conditions: TK-112690 60 mg/kg ip or 240 mg/kg po bid plus uridine 60 mg/kg vs PBS; 12 Gy; ip and po combined; p=0.012. The text has this: • Animal Species: Mouse (Mus musculus) • Strain/substrain: C57BL6 (negative for Klebsiella oxytoca) • Source: Jackson Laboratories, MP-14, Bar Harbour, Me 04609, USA • Total animals: 40 males plus 5 spares • Body weight range: 18 to 25 g at start of treatment • Animal ages: 10 to 12 weeks at start of treatment • Housing: Animals were individually housed in rodent polycarbonated bins with bedding (irradiated Teklad sani chips) equipped with water bottles. Following group assignment, all cages were clearly labeled with a color-coded cage card indicating at least the study number and animal number. • Animal Identification: Each animal was individually identified using a permanent marker. • Group Animal Numbers: Each animal was given a four-number identification code. The first number corresponds to the respective dose group (1-4). […] Concentrations of the contaminants (e.g., heavy metals, aflatoxin, organophosphate and chlorinated hydrocarbons) were routinely measured by the manufacturers. […]
Mortality checks were recorded concomitantly with the cage-side observations (see below for clinical signs), during all phases of the study. […]

Data set [3] in a line: Plasma concentration profile over 8 hours in mice (LC/MS). The data set is classed as in vivo, CD-1 Female Mice. Conditions: mouse plasma; for half-life: female, CD-1, read-out: Elimination half-life (converted). Here is the method: FIG. 3 depicts a set of data expressing plasma concentration profile over 8 hours in mice administered either 60 mg/kg of TK-112690 ip or 240 mg/kg po by gavage. Plasma samples from 3 animals/timepoint were analyzed. CD-1 Female Mice (n=3) were dosed with either 60 (ip) or 240 (po) mg/kg TK-112690 in PBS. Blood samples were obtained at the designated timepoints, and the samples analyzed for drug using LC/MS.

What is called half-life is the time in which the quantity being followed falls by half. With `Cc1cn2c(nc1=O)O[C@H]1[C@H](O)[C@@H](CO)O[C@H]12` [TK-112690], the “number of surviving intestinal crypts in the jejunum, Z scores” value in data set [1] (TK-112690 60 mg/kg ip bid plus uridine 60 mg/kg vs PBS, p=0.029) is “ameliorates the mucosal damage in the jejunum”; in data set [1] (TK-112690 60 mg/kg ip or 240 mg/kg po bid (combined) plus uridine 60 mg/kg vs PBS, p=0.007), “minimizes the mucosal damage in the jejunum”; in data set [1] (TK-112690 240 mg/kg po bid plus uridine 60 mg/kg vs PBS, p=0.041), “ameliorates the mucosal damage in the jejunum”. Further, the “number of surviving intestinal crypts (jejunum, duodenum, ileum), Z scores” value in data set [1] (TK-112690 60 mg/kg ip or 240 mg/kg po bid plus uridine 60 mg/kg vs PBS, p=0.03) is “lessens the mucosal damage associated with radiation treatment”. Besides, the “number of surviving intestinal crypts in the duodenum, Z scores” value in data set [1] (TK-112690 60 mg/kg ip or 240 mg/kg po bid plus uridine 60 mg/kg vs PBS, p=0.046) is listed as “ameliorates the mucosal damage in the duodenum”. The “difference in body weight between pre-treatment and day 6 (Z scores)” value in data set [2] is “modest, highly statistically significant (p=0.012) protection from weight loss”. Also, the AUC0→Last entry is listed as “Approximately 30 (micrograms/mL)*hour” in data set [3] (60 mg/kg ip in PBS) and ~40 (micrograms/mL)*hour in data set [3] (240 mg/kg po by gavage in PBS). Moreover, the half-life in data set [3] (60 mg/kg ip in PBS) and in data set [3] (240 mg/kg po by gavage in PBS) was approximately 2.5 h each time.

The values are drawn from patent US12508265B2, “Methods and compositions for reducing radiation induced toxicity” (Tosk, Inc., priority 2018, dated 2025).
